Reference: US5506217A, “Phosphonates as anti-cancer agents” (The University of British Columbia, priority 1994, dated 1996)

Legend:
WEHI-3B cells = assay: WEHI-3B tumor growth under the skin in mice (S-thioalkylphosphonate); format: in vivo
Experimental: We also provide data on the activity of S-thioalkylphosphonate to delay growth of tumor in the mice. WEHI-3B cells were grown in mice under the skin. Three days after the injection of cancer cells the mice received daily 10 mg/kg thialkylphosphonate for 21 days. The control mice received the saline alone instead of the drug. After 21 days, the tumor volume was measured. […] The tumor volume was measured in CM^3.

[1] = tested on: RPMI7915 cells (human melanoma); assay: effect of S-thioalkylphosphonate on tumor cell line (% of control); format: cell-based
P388 tumor cells = assay: colonogenic cell survival assay; format: cell-based; details: Mus musculus, 120 h, P388, soft agar, 5 days, read-out: Number of colonies Formed (% of Control)
Experimental: (§1) Inhibition of colony formation in soft agar medium (colonogenic cell survival assay) is a more rigorous and direct measurement of cell kill or growth inhibition, and reflects the anti-cancer activity of the test compound. Briefly, tumor cells were cultured in petri dishes in methylcellulose, with or without a phosphonate test compound, and the number of colonies formed during a 5-day incubation period were counted.
The efficacy of 4-hexadecylthio-3-methoxybutane phosphonocholine on the growth of a mouse […] tumor was evaluated. The P388 cell line was cultured in a soft agar in the presence and absence of various concentrations of thioalkylphosphonate for 5 days, the number of tumor colonies formed during this period of time was registered.

[2] = tested on: human colon carcinoma (HT29); assay: effect of S-thioalkylphosphonate on tumor cell line (% of control); format: cell-based; details: read-out: HT29 cells (% of control)
L1210 tumor cells = assay: colonogenic cell survival assay; format: cell-based; details: Mus musculus, 120 h, L1210, soft agar, read-out: Number of Colonies Formed (% of Control)
Experimental: as §1
The effectiveness of S-thioalkylphosphonate on the growth of a lymphoma cell line was also investigated. L1210 is a mouse B-Cell tumor (lymphoma), was tested in soft agar for susceptibility to the cytotoxic action of thioalkylphosphonate.

For `CCCCCCCCCCCCCCCCSCC(CCP(=O)([O-])OCC[N+](C)(C)C)OC` (stereo not shown) [S-Thioalkylphosphonocholine, 4-hexadecylthio-3-methoxybutane phosphonocholine], the “reduction of tumor size” value (WEHI-3B cells; after 21 days, daily 10 mg/kg) was “about 50%”, the “Tumor Volume at Day 21” value (WEHI-3B cells; daily 10 mg/kg for 21 days, from three days after injection of cancer cells) was “.0359 ± 0.128 cm^3” and the activity at 0.6 µM ([1]; RPMI-7951, 0.6 μM) was 98%. The activity at 1.25 µM ([1]; RPMI-7951, 1.25 μM) was 80%, the activity at 2.5 µM ([1]; RPMI-7951, 2.5 μM) was 78% and the activity at 5 µM ([1]; RPMI-7951, 5 μM) was 63%. For the same compound, the activity at 10 µM ([1]; RPMI-7951, 10 μM) was 40%, the activity at 20 µM ([1]; RPMI-7951, 20 μM) was 29% and the activity at 40 µM ([1]; RPMI-7951, 40 μM) was 0%. It also gave an activity at 0.62 µM (P388 tumor cells; 0.62 μM) of 55%, an activity at 1.25 µM (P388 tumor cells; 1.25 μM) of 43.7% and an activity at 2.5 µM (P388 tumor cells; 2.5 μM) of 41%. It also gave an activity at 5 µM (P388 tumor cells; 5 μM) of 29%, an activity at 10 µM (P388 tumor cells; 10 μM) of 3% and an activity at 20 µM (P388 tumor cells; 20 μM) of 1%. For the same compound, the activity at 0.6 µM ([2]; HT-29, 0.6 μM) was 99%, the activity at 1.25 µM ([2]; HT-29, 1.25 μM) was 83% and the activity at 2.5 µM ([2]; HT-29, 2.5 μM) was 71%. It also gave an activity at 5 µM ([2]; HT-29, 5 μM) of 54%, an activity at 10 µM ([2]; HT-29, 10 μM) of 45% and an activity at 20 µM ([2]; HT-29, 20 μM) of 18%. For the same compound, the activity at 40 µM ([2]; HT-29, 40 μM) was 1%, the activity at 0.65 µM (L1210 tumor cells; 0.65 μM) was 65% and the activity at 1.25 µM (L1210 tumor cells; 1.25 μM) was 47%. It also gave an activity at 2.5 µM (L1210 tumor cells; 2.5 μM) of 30.5%, an activity at 5 µM (L1210 tumor cells; 5 μM) of 30% and an activity at 10 µM (L1210 tumor cells; 10 μM) of 20.5%. For the same compound, the activity at 20 µM (L1210 tumor cells; 20 μM) was 14%.
